Laboratory results reported in patent US11701353B2, “Methods, compositions, and uses of novel FYN kinase inhibitors” (Pathways Neuro Pharma, Inc., priority 2015, dated 2023).

biological target: Fyn (Mus musculus (Mouse), UniProt P39688); assay: not given; settings: Fyn knockout strains; cited from earlier work
Sequence (P39688 whole entry): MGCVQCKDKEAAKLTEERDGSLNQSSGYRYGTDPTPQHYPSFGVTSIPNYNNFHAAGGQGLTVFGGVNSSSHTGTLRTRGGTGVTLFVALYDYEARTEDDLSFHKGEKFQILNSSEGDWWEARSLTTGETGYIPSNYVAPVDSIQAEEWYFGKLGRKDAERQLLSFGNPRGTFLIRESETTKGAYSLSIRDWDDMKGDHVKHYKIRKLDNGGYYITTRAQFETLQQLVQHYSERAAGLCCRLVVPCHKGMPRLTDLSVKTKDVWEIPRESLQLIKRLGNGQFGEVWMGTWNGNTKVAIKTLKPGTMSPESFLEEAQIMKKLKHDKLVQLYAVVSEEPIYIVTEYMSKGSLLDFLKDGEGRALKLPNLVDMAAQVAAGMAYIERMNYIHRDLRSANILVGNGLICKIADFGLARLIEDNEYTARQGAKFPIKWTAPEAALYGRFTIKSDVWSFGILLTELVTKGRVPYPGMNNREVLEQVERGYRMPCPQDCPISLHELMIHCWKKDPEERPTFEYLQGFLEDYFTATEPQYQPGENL

Row | Structure (SMILES) | energy utilization | lipid utilization
1 | CN(C)S(=O)(=O)c1ccc2c(c1)/C(=C/c1cc3c([nH]1)CCCC3)C(=O)N2 [SU6656] | no increase | no increase

same assay, conditions: treated mice relative to untreated control mice; cited from earlier work

Row | Structure (SMILES) | fat mass
2 | CN(C)S(=O)(=O)c1ccc2c(c1)/C(=C/c1cc3c([nH]1)CCCC3)C(=O)N2 [SU6656] | significantly reduced

biological target: full-length recombinant human FYN A (Homo sapiens (Human), UniProt P06241); assay: ADP-Glo Kinase Assay, FYN kinase inhibition (primary and secondary screen); assay type: biochemical; settings: primary screen, initial compounds
Source text: The chemical library was comprised of the SoftFocus ATP-competitive hinge binding compounds described by Harris, C. J., Hill, R. D., Sheppard, D. W., et al., The Design and Application of Target-Focused Compound Libraries. Combinatorial Chemistry and High Throughput Screening 14:521-31 (2011). The specific pharmacore chemistries included SFK52 comprising 6-[R2]-3-[R1]imidazo[1,2-b] pyridazine compounds, SFK33 comprising N-(3-[R2] imidazo [1,2-b] pyridazin-6-yl) [R1] amine compounds, SFK49 comprising N-(5-[R2] imidazo [2,1-b][1,3,4] thiadiazol-2-yl)[R1]-amine compounds, SFK 40 comprising 5-[R2]-3-[R1] pyridin-2-amine compounds, SFK43 comprising 6-[R2]-3-[R1]imidazo[1,2-a] pyrazine compounds, and SFK63. The chemical structures of the initial 600 potential kinase inhibitors are presented in Table 3, with those chosen for additional analysis presented in Table 4. Comparison of the compounds presented in Table 1 and those of Tables 2, 3 and 4, illustrate the novelty of the chemical structures claimed herein.
FYN kinase (10 micrograms) was from the FYN A Kinase Enzyme System (V3571, Promega UK Ltd.), a full-length recombinant human FYN A containing an N-terminal GST tag of about 85 kDa, expressed by bacullovirus in […] insect cells, supplied at a concentration of 0.1 microgram/microliter in 5× reaction buffer. The FYN substrate, a 12 amino acid peptide of the sequence […], containing a single tyrosine phosphorylation site, was custom synthesized (Peptide Synthetics, Peptide Protein Research, Fareham, UK) and supplied as a 4 mg/ml aqueous solution. All other reagents were obtained from Sigma (Sigma-Aldrich, Gillingham, Dorset, UK), with the exception of UltraPure ATP (V9102, Promega UK Ltd.) and the ATP-competitive broad spectrum protein kinase inhibitor staurosporine (569397, Merck Millipore, Watford, Hertfordshire, UK), or as otherwise indicated.
The assay procedure determines the IC50 of each potential FYN kinase inhibitor by measuring the enzyme catalyzed ATP-dependent phosphorylation of the FYN substrate peptide. The ADP-Glo™ Kinase Assay is specifically designed to quantify kinase activity by measuring the ADP produced in the reaction The reaction buffer comprises 40 mM Tris·HCl (pH 7.5), 20 mM MgCl2, 0.1 mg/ml BSA and 5 microM DTT. Individual compounds within the chemical library were dissolved in DMSO at known concentrations. Briefly, 2.5 microliters of reaction buffer containing 3 picograms of FYN kinase and serial dilutions of each potential FYN kinase inhibitor (9 3-fold dilutions of a 10 micromolar top sample) are placed into each well of a 384 well microtiter plate and incubated at room temperature for 30 minutes. An additional 2.5 microliters of reaction buffer containing 100 picograms of the FYN substrate and 12.5 picomoles of ATP are then added to each well and the reaction carried out for 90 minutes at room temperature. The reactions are terminated by addition of 5 microliters of the ADP-Glo™ Reagent component of the ADP-Glo™ Kinase Assay kit to each well. The ADP-Glo™ Reagent comprises an ATP-dependent adenylate cyclase, an inorganic pyrophosphatase and an excess of staurosporine. The adenylate cyclase converts the remaining ATP to cAMP and pyrophospahte, the pyrophosphatase converts the pyrophosphate to phosphate and the staurosporine inhibits the activity of the FYN kinase, the net effect is to remove all residual ATP while preserving the ADP produced by FYN kinase. The terminated reactions are incubated for 40 minutes at room temperature, prior to addition of the Kinase Detection Reagent component of the ADP-Glo™ Kinase Assay kit to each well. The Kinase Detection Reagent comprises pyruvate kinase, phosphoenol pyruvate (PEP), luciferin and luciferase. The pyruvate kinase converts PEP to pyruvate and in the process generates ATP from the residual ADP present in the terminated reaction. […]

Chain of full-length recombinant human FYN A (P06241 whole entry): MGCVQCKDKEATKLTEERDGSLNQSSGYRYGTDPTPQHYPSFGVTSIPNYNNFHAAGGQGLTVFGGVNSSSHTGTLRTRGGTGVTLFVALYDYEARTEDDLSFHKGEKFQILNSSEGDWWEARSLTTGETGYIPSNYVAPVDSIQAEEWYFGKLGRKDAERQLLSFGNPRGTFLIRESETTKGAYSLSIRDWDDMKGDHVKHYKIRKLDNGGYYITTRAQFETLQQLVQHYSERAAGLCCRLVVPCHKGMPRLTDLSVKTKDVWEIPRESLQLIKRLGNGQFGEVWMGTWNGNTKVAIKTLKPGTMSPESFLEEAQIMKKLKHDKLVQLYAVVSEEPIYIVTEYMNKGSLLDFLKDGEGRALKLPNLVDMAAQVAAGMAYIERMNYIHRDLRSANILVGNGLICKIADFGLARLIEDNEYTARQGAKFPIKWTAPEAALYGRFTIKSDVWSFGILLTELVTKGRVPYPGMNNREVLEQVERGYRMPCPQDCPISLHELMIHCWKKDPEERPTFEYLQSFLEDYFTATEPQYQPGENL

Row | Structure (SMILES) | IC50 [µM]
3 | Oc1cccc(-c2cncc(NCc3ccoc3)c2)c1 [081_0284_2069, 3-[5-(3-furylmethyl-amino)-3-pyridyl]phenol] | 10.9
4 | Cc1ccccc1CNc1nn2c(-c3cccc(C(=O)N(C)C)c3)cnc2s1 [699_8074_0349, N,N-dimethyl-3-[2-(o-tolylmethyl-amino)imidazo[2,1-b][1,3,4]thia-diazol-5-yl]benzamide] | 3.73
5 | NC(=O)c1cccc(-c2cnc3sc(NCC4CC4)nn23)c1 [699_4051_0347, 3-[2-(cyclopropyl-methyl-amino)imidazo [2,1-b][1,3,4]thia-diazol-5-yl]benzamide] | 1.94
6 | CC(=O)Nc1cccc(-c2cncc(NCc3ccco3)n2)c1 [035_0144_0081, N-[3-[6-(2-furylmethyl-amino)pyrazin-2-yl]phenyl] acetamide] | 11.2

Results, then the compound that gave them:

Row | IC50 [µM] | Structure (SMILES)
7 | 0.497 | c1csc(-c2cnc3ccc(-c4ccncc4)nn23)c1 [828_4147_0069, 6-(4-pyridyl)-3-(2-thienyl)imidazo [1,2-b]pyridazine]
8 | 0.997 | CC(=O)c1cccc(-c2cnc3ccc(NCc4ccco4)nn23)c1 [229_0144_4145, 1-[3-[6-(2-furylmethyl-amino)imidazo[1,2-b]pyridazin-3-yl]phenyl] ethanone]
9 | 3.86 | OCc1cccc(-c2cnc3ccc(NCc4ccco4)nn23)c1 [229_0144_0291, [3-[6-(2-furylmethyl-amino)imidazo[1,2-b]pyridazin-3-yl]phenyl] methanol]
10 | 3.59 | O=CNc1cc(-c2ccc(C(=O)N3CCOCC3)cc2)cn2c(-c3ccc(F)cc3)cnc12 [788_0339_0337, N-[3-(4-fluorophenyl)-6-[4-(morpholine-4-carbonyl)phenyl]imidazo[1,2-a]pyridin-8-yl]formamide]
11 | 2.2 | OCc1ccc(-c2cnc3ccc(NCc4ccco4)nn23)cc1 [229_0144_0285, [4-[6-(2-furylmethyl-amino)imidazo[1,2-b]pyridazin-3-yl]phenyl] methanol]
12 | 0.974 | COc1ccc(-c2cnc3ccc(Cc4ccccc4)nn23)cc1OC [828_0079_6001, 6-benzyl-3-(3,4-dimethoxyphen-yl)imidazo[1,2-b]pyridazine]
13 | 1.3 | NC(=O)c1ccc(-c2cnc3ccc(Cc4ccc(F)cc4)nn23)cc1 [828_0346_6370, 4-[6-[(4-fluorophenyl)methyl]imidazo [1,2-b]pyridazin-3-yl]benzamide]

same assay, conditions: secondary screen, candidate compounds re-synthesized and expanded

Row | Structure (SMILES) | IC50 [µM]
14 | CN(C)C(=O)c1cccc(-c2cnc3sc(NCC4CC4)nn23)c1 [BF000714798, 3-[2-(cyclopropyl-methylamino)imidazo[2,1-b][1,3,4]thia-diazol-5-yl]-N,N-dimethyl-benzamide] | 0.884
15 | COc1cc(-c2cnc3ccc(NCc4cccs4)nn23)ccc1O [BF000145954, 2-methoxy-4-[6-(2-thienylmeth-ylamino)imi-dazo[1,2-b]pyridazin-3-yl]phenol] | 0.166
16 | COc1cc(-c2cnc3ccc(NCc4ccccn4)nn23)ccc1O [BF000817095, 2-methoxy-4-[6-(2-pyridylmeth-ylamino)imi-dazo[1,2-b]pyridazin-3-yl]phenol] | 0.233
17 | CN(C)C(=O)c1cccc(-c2cnc3sc(NCc4ccc5c(c4)OCO5)nn23)c1 [BF000717214, 3-[2-(1,3-benzodioxol-5-ylmethyl-amino)imi-dazo[2,1-b][1,3,4]thia-diazol-5-yl]-N,N-dimethyl-benzamide] | 1.93
